Experiment: DPPH (2,2-diphenyl-1-picrylhydrazyl) in vitro antioxidant test
Type: biochemical
Conditions: 517 nm; for Inhibition (radical scavenging inhibition): 0.2 mL DPPH (0.75 mM) in ethanol, 30 min incubation in the dark
Protocol: The antioxidant properties of the 8-((2-hydroxy-5-methylphenyl)diazenyl)naphthalene-1,3-disulfonic acid were studied by adding 0.2 mL DPPH (0.75 mM)) to compound 8-((2-hydroxy-5-methylphenyl)diazenyl)naphthalene-1,3-disulfonic acid (III) (304) in ethanol. After 30 min of incubation in the dark, the absorbance was read against a blank at 517 nm. Ascorbic acid (vitamin C) was used as standard antioxidants (positive control). A blank sample was prepared by 0.2 ml of DPPH in 3 ml ethanol. A negative control sample was run using ethanol instead of the sample. The radical scavenging inhibition was calculated using the following equation: […]

Structure (SMILES)	Inhibition (radical scavenging inhibition) [%]	antioxidant potential compared to vitamin C (DPPH in vitro test, vitamin C as positive control)
Cc1ccc(O)c(/N=N/c2cccc3cc(S(=O)(=O)O)cc(S(=O)(=O)O)c23)c1 [Product III, 8-((2-hydroxy-5-methylphenyl)diazenyl)naphthalene-1,3-disulfonic acid]	54	high potential as an antioxidant compared to vitamin C
O=C1O[C@H]([C@@H](O)CO)C(O)=C1O [vit c, Ascorbic acid, reference compound]	74	–

— US11932594B1, “8-((2-hydroxy-5-methylphenyl)diazenyl)naphthalene-1,3-disulfonic acid as an antioxidant compound” (KING FAISAL UNIVERSITY, priority 2023, dated 2024)
